Data from publication PMC2963127, “Genotoxicity Revaluation of Three Commercial Nitroheterocyclic Drugs: Nifurtimox, Benznidazole, and Metronidazole” (Journal of Parasitology Research, 2009).
Where two headings read alike, the source gives them in different places. Marks after values point to notes of the source that are not given here.

How the values were obtained:
[1] = test system: Salmonella typhimurium TA98; conditions: for Revertant/plate: TA98 without S9; for Specific mutagenic activity (revertant increase/dose unit): linear regression
human lymphocytes = test: Micronucleus (MN) assay, cytokinesis block; assay type: cell-based
Experimental: The MN assay was performed using blood samples from healthy, nonsmoking males, as provided by the AVIS (Italian Association of Voluntary Blood Donors). […] Cytochalasin-B was added 44 hours after the start of incubation at a final concentration of 6 μg/mL; at 48 hours, the lymphocytes were treated with the different drugs. […] Each treatment was tested with cells from two donors, performed in duplicate separate cultures (i.e., four cultures were set up for each treatment). After incubation, the lymphocytes were collected and resuspended in a mild hypotonic solution (0.075 M KCl) and then added with an ice-cold 5 : 3 acetic acid : methanol solution. After centrifugation (500 g, 10 min), the pellets were resuspended in cold (-20°C) methanol and maintained at -20°C (at least 24 hours). […] Scoring was done using an […] (Munich, Germany) light microscope at 1000X magnification. […] NDI data were analyzed by Student's t-test.

[2] = test system: immortalized lymphocytes (Epstein-Barr virus lymphoblastoid cell line); test: Long-term exposure cytotoxicity assay (MTS); assay type: cell-based, human; conditions: 48 hours treatment
[3] = test system: Salmonella typhimurium TA100; conditions: for Specific mutagenic activity (revertant increase/dose unit): linear regression; for Revertant/plate: TA100 without S9
human leukocytes [4] = test: Modified comet assay with ENDOIII for oxidised bases; conditions: 37°C, 1 hour
Experimental: Oxidatively generated damage can be evaluated easily by comparing the DNA migration in enzyme-or buffer-treated samples. The comet assay, with the modification of an extra step after lysis in which DNA is digested with the repair enzyme, was performed according to Collins et al. […] ENDOIII was isolated from bacteria containing over-producing plasmids (Collin's Laboratory, Rowett Research Institute, Bucksburn, Aberdeen, UK). The enzyme-treated gels reveal alkali labile sites and strand breaks (ALS/SB) and oxidised bases (ALS/SB + OX). Assuming a linear dose response, subtraction of (ALS/SB) from (ALS/SB + OX) gives a measure of oxidised bases. The SPSS 11 statistical package was used to analyse statistical differences between samples. Statistical differences between controls and treated samples were first determined with the nonparametric Wilcoxon rank-sum test for each experiment. The mean values from the repeated experiments were used in a one-way analysis of variance. Analysis of variance was followed by single or multiple pairwise comparisons. Data were tested for normality and homogeneity of variance. When these criteria were met, the data were compared using Dunnett's version of the t-test.

human leukocytes [5] = assay type: cell-based; conditions: 1 hour treatment, measured immediately after exposure; NFX 0–348 μM, BNZ 0–348 μM, MTZ 0–585 μM
[6] = therapeutically treated patients; no reference given; cited from earlier work

Compound: O=[N+]([O-])c1ccc2c(c1)Cc1ccccc1-2 [2-NF, 2-nitrofluorene]
- Revertant/plate ([1]; 15 μg/plate): 169 ± 7

Compound: O=C(Cn1ccnc1[N+](=O)[O-])NCc1ccccc1 [BNZ, N-benzyl-2-(2-nitroimidazol-1-yl)acetamide]
- Effect on MN frequency (human lymphocytes; 24-hours treated lymphocytes): did not alter MN frequency
- MN (human lymphocytes; 24h, 3.8 µM): 4.0± 0.5 x10-3 BN
- NDI (human lymphocytes; 24h, 3.8 µM): 1.97± 0.11
- NDI (%) (human lymphocytes; 24h, 3.8 µM): 94± 5%
- MN (human lymphocytes; 24h, 7.7 µM): 3.5± 1.0 x10-3 BN
- NDI (human lymphocytes; 24h, 7.7 µM): 1.97± 0.07
- NDI (%) (human lymphocytes; 24h, 7.7 µM): 94± 3%
- MN (human lymphocytes; 24h, 15.4 µM): 2.5± 0.5 x10-3 BN
- NDI (human lymphocytes; 24h, 15.4 µM): 2.00± 0.06
- NDI (%) (human lymphocytes; 24h, 15.4 µM): 95± 3%
- MN (human lymphocytes; 24h, 30.7 µM): 4.5± 1.0 x10-3 BN
- NDI (%) (human lymphocytes; 24h, 30.7 µM): 97± 2%
- MN (human lymphocytes; 24h, 61.5 µM): 3.5± 0.5 x10-3 BN
- NDI (human lymphocytes; 24h, 61.5 µM): 1.99± 0.07
- NDI (%) (human lymphocytes; 24h, 61.5 µM): 95± 3%
- MN (human lymphocytes; 24h, 96.1 µM): 3.0± 0.5 x10-3 BN
- NDI (human lymphocytes; 24h, 96.1 µM): 2.01± 0.03
- NDI (%) (human lymphocytes; 24h, 96.1 µM): 96± 1%
- MN (human lymphocytes; 24h, 192.1 µM): 5.0± 1.0 x10-3 BN
- NDI (human lymphocytes; 24h, 192.1 µM): 2.07± 0.07
- NDI (%) (human lymphocytes; 24h, 192.1 µM): 99± 3%
- MN (human lymphocytes; 24h, 384.2 µM): 3.5± 0.5 x10-3 BN
- NDI (%) (human lymphocytes; 24h, 384.2 µM): 97± 5%
- Effect on MN frequency (human lymphocytes; 72 hours treated lymphocytes): increase of MN frequency
- Effect on nuclear division (NDI) (human lymphocytes; 72 hours treated lymphocytes): without some decrease of nuclear division
- MN (human lymphocytes; 72 hours, 3.8 μM): 3.5 ± 1.0 ×10^−3 BN
- NDI (human lymphocytes; 72 hours, 3.8 μM): 1.93 ± 0.11
- NDI (%) (human lymphocytes; 72 hours, 3.8 μM): 100 ± 6%
- MN (human lymphocytes; 72 hours, 7.7 μM): 4.0 ± 1.0 ×10^−3 BN
- NDI (human lymphocytes; 72 hours, 7.7 μM): 2.00 ± 0.07
- NDI (%) (human lymphocytes; 72 hours, 7.7 μM): 104 ± 4%
- MN (human lymphocytes; 72 hours, 15.4 μM): 4.0 ± 1.5 ×10^−3 BN
- NDI (human lymphocytes; 72 hours, 15.4 μM): 1.98 ± 0.06
- NDI (%) (human lymphocytes; 72 hours, 15.4 μM): 102 ± 3%
- MN (human lymphocytes; 72 hours, 30.7 μM): 3.5 ± 1.0 ×10^−3 BN
- NDI (human lymphocytes; 72 hours, 30.7 μM): 1.99 ± 0.05
- NDI (%) (human lymphocytes; 72 hours, 30.7 μM): 103 ± 3%
- MN (human lymphocytes; 72 hours, 61.5 μM): 3.0 ± 0.5 ×10^−3 BN
- NDI (human lymphocytes; 72 hours, 61.5 μM): 2.06 ± 0.07
- NDI (%) (human lymphocytes; 72 hours, 61.5 μM): 107 ± 4%
- MN (human lymphocytes; 72 hours, 96.1 μM): 9.0 ± 0.5 ×10^−3 BN
- NDI (human lymphocytes; 72 hours, 96.1 μM): 2.05 ± 0.03
- NDI (%) (human lymphocytes; 72 hours, 96.1 μM): 106 ± 2%
- MN (human lymphocytes; 72 hours, 192.1 μM): 13.0 ± 1.0^b ×10^−3 BN
- NDI (human lymphocytes; 72 hours, 192.1 μM): 2.00 ± 0.07
- NDI (%) (human lymphocytes; 72 hours, 192.1 μM): 104 ± 4%
- MN (human lymphocytes; 72 hours, 384.2 μM): 16.5 ± 0.5^b ×10^−3 BN
- NDI (human lymphocytes; 72 hours, 384.2 μM): 1.93 ± 0.10
- NDI (%) (human lymphocytes; 72 hours, 384.2 μM): 100 ± 6%
- Revertants ([1]; TA98 +S9, 5 µg/plate): 20± 2
- Revertants ([1]; TA98 +S9, 10 µg/plate): 18± 2
- Revertants ([1]; TA98 +S9, 20 µg/plate): 22± 8
- Revertants ([1]; TA98 +S9, 40 µg/plate): 24± 5
- Revertants ([1]; TA98 +S9, 80 µg/plate): 23± 4
- Revertants ([1]; TA98 +S9, 125 µg/plate): 34± 2
- Revertants ([1]; TA98 +S9, 250 µg/plate): 43± 9
- Revertants ([1]; TA98 +S9, 500 µg/plate): 44± 6
- Revertants ([1]; TA98 -S9, 5 µg/plate): 10± 2
- Revertants ([1]; TA98 -S9, 10 µg/plate): 16± 4
- Revertants ([1]; TA98 -S9, 20 µg/plate): 14± 6
- Revertants ([1]; TA98 -S9, 40 µg/plate): 15± 1
- Revertants ([1]; TA98 -S9, 80 µg/plate): 14± 2
- Revertants ([1]; TA98 -S9, 125 µg/plate): 26± 3
- Revertants ([1]; TA98 -S9, 250 µg/plate): 39± 3
- Revertants ([1]; TA98 -S9, 500 µg/plate): 45± 5
- Specific mutagenic activity (revertant increase/dose unit) ([1]; TA98 with S9 mix): 0.10 (0.93)
- Specific mutagenic activity (revertant increase/dose unit) ([1]; TA98 without S9 mix): 0.07 (0.88)
- Cytotoxic effect on cultured lymphocytes [2]: did not show any significant effects
- Lowest effective dose / concentration significantly increasing the revertant number ([3]; TA100): 5 µg/mL
- Revertants ([3]; TA100 +S9, 5 µg/plate): 406± 13
- Revertants ([3]; TA100 +S9, 10 µg/plate): 811± 55
- Revertants ([3]; TA100 +S9, 20 µg/plate): 1445± 85
- Revertants ([3]; TA100 +S9, 40 µg/plate): 3117± 169
- Revertants ([3]; TA100 +S9, 80 µg/plate): 4901± 166
- Revertants ([3]; TA100 -S9, 5 µg/plate): 498± 25
- Revertants ([3]; TA100 -S9, 10 µg/plate): 943± 27
- Revertants ([3]; TA100 -S9, 20 µg/plate): 1801± 67
- Revertants ([3]; TA100 -S9, 40 µg/plate): 3344± 104
- Revertants ([3]; TA100 -S9, 80 µg/plate): 5287± 81
- Specific mutagenic activity (revertant increase/dose unit) ([3]; TA100 with S9 mix): 60.92 (0.98)
- Specific mutagenic activity (revertant increase/dose unit) ([3]; TA100 without S9 mix): 64.96 (0.98)
- Specific genotoxic activity, DNA migration/dose unit (II: comet assay modified with ENDOIII, DNA oxidative damage) (human leukocytes [4]): 0.9077 (r ^2 = 0.8351) μm/μM
- Cellular survival rate (human leukocytes [5]): did not appear to be affected

Compound: NC(=O)C(=Cc1ccc([N+](=O)[O-])o1)c1ccco1 [FYFA, 2-(2-furyl)-3-(5-nitro-2-furyl)acrylamide]
- Revertant/plate ([1]; 20 ng/plate): 189 ± 16
- Revertant/plate ([3]; 20 ng/plate): 1133 ± 70

Compound: CCN(CC)CCNc1ccc(CO)c2sc3ccccc3c(=O)c12 [HYC, hycantone]
- Revertant/plate ([1]; positive control 75 μg/plate): 870 ± 90
- Revertant/plate ([3]; positive control 75 μg/plate): 968 ± 103

Compound: Cc1ncc([N+](=O)[O-])n1CCO [MTZ, 2-(2-methyl-5-nitro-1H-imidazol-1-yl)ethanol]
- Plasmatic concentration in treated patients [6]: 8 to 13 µg/mL
- NDI (human lymphocytes; 24h, 5.9 µM): 1.97± 0.07
- NDI (%) (human lymphocytes; 24h, 5.9 µM): 100± 4%
- NDI (human lymphocytes; 24h, 11.7 µM): 1.97± 0.05
- NDI (%) (human lymphocytes; 24h, 11.7 µM): 100± 3%
- NDI (human lymphocytes; 24h, 46.8 µM): 2.01± 0.10
- NDI (%) (human lymphocytes; 24h, 46.8 µM): 102± 5%
- NDI (human lymphocytes; 24h, 93.6 µM): 1.99± 0.04
- NDI (%) (human lymphocytes; 24h, 93.6 µM): 101± 2%
- NDI (human lymphocytes; 24h, 146.2 µM): 1.97± 0.10
- NDI (%) (human lymphocytes; 24h, 146.2 µM): 100± 5%
- NDI (human lymphocytes; 24h, 292.4 µM): 2.01± 0.03
- NDI (%) (human lymphocytes; 24h, 292.4 µM): 102± 2%
- NDI (human lymphocytes; 24h, 584.8 µM): 1.94± 0.06
- NDI (%) (human lymphocytes; 24h, 584.8 µM): 98± 3%
- NDI (human lymphocytes; 72h, 2.9 µM): 1.74± 0.11
- NDI (%) (human lymphocytes; 72h, 2.9 µM): 100± 6%
- NDI (human lymphocytes; 72h, 5.9 µM): 1.75± 0.17
- NDI (%) (human lymphocytes; 72h, 5.9 µM): 101± 10%
- NDI (human lymphocytes; 72h, 11.7 µM): 1.74± 0.10
- NDI (%) (human lymphocytes; 72h, 11.7 µM): 100± 6%
- NDI (human lymphocytes; 72h, 46.8 µM): 1.81± 0.09
- NDI (human lymphocytes; 72h, 93.6 µM): 1.73± 0.08
- NDI (%) (human lymphocytes; 72h, 93.6 µM): 100± 5%
- NDI (human lymphocytes; 72h, 146.2 µM): 1.84± 0.11
- NDI (%) (human lymphocytes; 72h, 146.2 µM): 106±6%
- NDI (human lymphocytes; 72h, 292.4 µM): 1.76± 0.07
- NDI (%) (human lymphocytes; 72h, 292.4 µM): 102± 4%
- NDI (human lymphocytes; 72h, 584.8 µM): 1.74± 0.12
- NDI (%) (human lymphocytes; 72h, 584.8 µM): 100± 7%
- Effect on nuclear division (NDI) (human lymphocytes; 72 hours treated lymphocytes): did not induce any alteration
- Cytotoxic effect on cultured lymphocytes [2]: did not show any significant effects

Compound: CCOS(C)(=O)=O [ethyl methane sulfonate]
- MN frequency in binucleated cells (human lymphocytes; male, human, 24 h, 1 μM): 15.0 ± 2.8 ×10^−3 BN
- MN frequency in binucleated cells (human lymphocytes; male, human, 24 h, 120 µg/ml): 15.0± 2.8 x10-3 BN

Compound: bleomycin
- MN frequency in binucleated cells (human lymphocytes; positive control, 6µg/ml): 26.0± 4.0 x10-3 BN
